According to patent US7122540B2, “2-Phenyl substituted imidazotriazinones as phosphodiesterase inhibitors” (Bayer HealthCare AG, priority 1997, dated 2006):

Tests used:
PDE V = target: T1, PDE V (Bos taurus, UniProt Q28156); assay: Inhibition of the phosphodiesterases in vitro: cGMP-specific PDE V; format: biochemical, porcine, human or, preferably, bovine; conditions: [3H]cGMP substrate; concentration at which the reaction rate is reduced by 50%
T1 construct: Purification was carried out by anion exchange chromatography over MonoQ; from tissue; host or cells: porcine small intestine, porcine aorta, human platelets or, preferably, bovine aorta
Description: The cGMP-stimulated PDE II, the cGMP-inhibited PDE III and the cAMP-specific PDE IV were isolated either from porcine or bovine heart myocardium. The Ca^2+-calmodulin-stimulated PDE I was isolated from porcine aorta, porcine brain or, preferably, from bovine aorta. The cGMP-specific PDE V was obtained from porcine small intestine, porcine aorta, human platelets and, preferably, from bovine aorta.
(§1) The enzyme activity is determined using a test mixture of 100 ml in 20 mM tris/HCI-buffer pH 7.5 containing 5 mM MgCl2, 0.1 mg/ml of bovine serum albumin and either 800Bq[^3H]cAMP or [^3H]cGMP. The final concentration of the nucleotides in question is 10^−6 mol/l. The reaction is initiated by addition of the enzyme and the amount of enzyme is such that during the incubation time of 30 min, approximately 50% of the substrate are converted. To test the cGMP-stimulated PDE II, [^3H]cAMP is used as substrate and 10^−6 mol/l of non-labelled cGMP are added to the mnixture. To test the Ca^2+-calmodulin-dependent PDE I, 1 mM of CaCl2 and […] are added to the reaction mixture. The reaction is quenched by addition of […] of acetonitrile containing 1 mM cAMP and 1 mM AMP. 100 ml of the reaction mixture are separated by HPLC, and the cleavage products are determined quantitatively on-line using a continuous scintillation counter. The substance concentration measured is the concentration at which the reaction rate is reduced by 50%. Additionally, the “phosphodiesterase [^3H] cAMP-SPA enzyme assay” and the “phosphodiesterase [^3H] cGMP-SPA enzyme assay” from Amersham Life Science were used for testing. The test was carried out according to the test protocol of the manufacturer. To determine the activity of PDE II, the [^3H]cAMP SPA assay was used, and 10^−6M cGMP were added to the reaction mixture to activate the enzyme. To measure PDE I, 10^−7M calmodulin and 1 mM CaCl2 were added to the reaction mixture. PDE V was measured using the [^3H]cGMP SPA assay.

PDE I = assay: Inhibition of the phosphodiesterases in vitro: Ca2+-calmodulin-stimulated PDE I; format: biochemical, porcine or, preferably, bovine; conditions: concentration at which the reaction rate is reduced by 50%; CaCl2 and calmodulin added
Description: (§2) The cGMP-stimulated PDE II, the cGMP-inhibited PDE III and the cAMP-specific PDE IV were isolated either from porcine or bovine heart myocardium. The Ca^2+-calmodulin-stimulated PDE I was isolated from porcine aorta, porcine brain or, preferably, from bovine aorta. The cGMP-specific PDE V was obtained from porcine small intestine, porcine aorta, human platelets and, preferably, from bovine aorta. Purification was carried out by anion exchange chromatography over MonoQ® Pharmacia, essentially following the method of M. Hoey and Miles D. Houslay, Biochemical Pharmacology, Vol. 40, 193–202(1990) and C. Lugman et al., Biochemical Pharmacology, Vol. 35, 1743–1751(1986).
as §1

PDE II = target: T2, PDE II (Bos taurus, UniProt P14099); assay: Inhibition of the phosphodiesterases in vitro: cGMP-stimulated PDE II; format: biochemical, porcine or bovine; conditions: [3H]cAMP substrate, 10^-6 mol/l cGMP added; concentration at which the reaction rate is reduced by 50%
T2 construct: isolated either from porcine or bovine heart myocardium; from tissue; host or cells: porcine or bovine heart myocardium
T2 sequence (P14099 1-921): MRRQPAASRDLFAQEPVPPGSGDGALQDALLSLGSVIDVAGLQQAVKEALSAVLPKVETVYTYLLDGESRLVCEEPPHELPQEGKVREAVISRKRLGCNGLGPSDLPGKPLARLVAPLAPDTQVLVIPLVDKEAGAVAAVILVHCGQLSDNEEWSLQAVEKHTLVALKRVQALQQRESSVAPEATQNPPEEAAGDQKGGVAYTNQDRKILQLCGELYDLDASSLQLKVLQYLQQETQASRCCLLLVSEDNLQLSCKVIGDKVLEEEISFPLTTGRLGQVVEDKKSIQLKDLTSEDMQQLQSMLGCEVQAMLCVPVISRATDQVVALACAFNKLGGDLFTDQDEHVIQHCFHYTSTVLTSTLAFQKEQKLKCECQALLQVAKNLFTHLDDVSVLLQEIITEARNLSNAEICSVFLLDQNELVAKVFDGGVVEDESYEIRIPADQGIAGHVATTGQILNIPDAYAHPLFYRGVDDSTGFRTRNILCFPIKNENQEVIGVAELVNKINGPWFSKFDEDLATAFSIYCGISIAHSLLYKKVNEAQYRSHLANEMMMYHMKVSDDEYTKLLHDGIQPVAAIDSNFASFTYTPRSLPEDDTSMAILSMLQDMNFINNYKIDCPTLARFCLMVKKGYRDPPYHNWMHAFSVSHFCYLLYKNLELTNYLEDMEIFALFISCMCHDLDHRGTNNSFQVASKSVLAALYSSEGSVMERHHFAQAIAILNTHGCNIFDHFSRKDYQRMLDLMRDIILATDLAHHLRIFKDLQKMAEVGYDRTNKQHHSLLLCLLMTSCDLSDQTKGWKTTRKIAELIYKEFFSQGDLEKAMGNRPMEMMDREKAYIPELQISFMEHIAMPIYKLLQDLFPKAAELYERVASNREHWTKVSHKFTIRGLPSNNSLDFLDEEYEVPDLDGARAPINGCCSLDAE
Description: as §2, §1

Row | SMILES | IC50 (PDE V) [nM] | IC50 (PDE I) [nM] | IC50 (PDE II) [nM]
1 | CCCc1nc(C)c2c(=O)[nH]c(-c3cc(S(=O)(=O)N4CCN(C)CC4)ccc3OCC)nn12 [Example 16, 2-[2-Ethoxy-5-(4-methyl-piperazine-1-sulphonyl)-phenyl]-5-methyl-7-propyl-3H-imidazo[5,1-f][1,2,4]triazin-4-one] | 2 | 300 | > 1000
2 | CCCc1nc(C)c2c(=O)[nH]c(-c3cc(S(=O)(=O)N4CCN(CC)CC4)ccc3OCC)nn12 [Example 19, 2-[2-Ethoxy-5-(4-ethyl-piperazine-1-sulphonyl)-phenyl]-5-methyl-7-propyl-3H-imidazo[5,1-f][1,2,4]triazin-4-one] |  |  | > 1000
3 | CCCc1nc(C)c2c(=O)[nH]c(-c3cc(S(=O)(=O)N4CCC(O)CC4)ccc3OCC)nn12 [Example 26, 2-[2-Ethoxy-5-(4-hydroxy-piperidine-1-sulphonyl)-phenyl]-5-methyl-7-propyl-3H-imidazo[5,1-f][1,2,4]triazin-4-one] | 1 | 100 | > 1000
4 | CCCc1nc(C)c2c(=O)[nH]c(-c3cc(S(=O)(=O)N4CCN(CCO)CC4)ccc3OCC)nn12 [Example 27, 2-{2-Ethoxy-5-[4-(2-hydroxy-ethyl)-piperazine-1-sulphonyl]-phenyl}-5-methyl-7-propyl-3H-imidazo[5,1-f][1,2,4]triazin-4-one] | 3 | 200 | > 1000
5 | CCCc1nc(C)c2c(=O)[nH]c(-c3cc(S(=O)(=O)N(CC)CC)ccc3OCC)nn12 [Example 32, N,N-Diethyl-4-ethoxy-3-(5-methyl-4-oxo-7-propyl-3,4-dihydro-imidazo[5,1-f][1,2,4]triazin-2-yl)benzenesulphonamide] | 4 | 100 | > 1000
6 | CCCc1nc(C)c2c(=O)[nH]c(-c3cc(S(=O)(=O)N4CCOCC4)ccc3OCC)nn12 [Example 260] | 10 | 300 | > 1000
7 | CCCc1nc(C)c2c(=O)[nH]c(-c3cc(S(=O)(=O)N(CCC)CCO)ccc3OCC)nn12 [Example 275] | 3 | 50 | > 1000
